# Data: publication PMC7411736, “Effects of Sesamin, the Major Furofuran Lignan of Sesame Oil, on the Amplitude and Gating of Voltage-Gated Na^+ and K^+ Currents” (Molecules, 2020)
# Read-outs that look alike come from different tables or passages of the source.
# Columns and labels:
# Format in all cases: cell-based, rat
# [1] = test system: voltage-gated Na+ currents (INa) in pituitary GH3 cells; experiment: Whole-cell patch-clamp of voltage-gated Na+ current evoked by depolarization from −80 to −10 mV; settings: for Effect on SSM-induced inhibition of peak INa: 10 μM added in continued presence of SSM (3 μM); for Effect on peak amplitude of INa: −80 to −10 mV (Figure 2); for IC50: GH3 cells, depolarization −80 to −10 mV
# Procedure: In an initial step of the experiments, we examined the effects of SSM on the amplitude and gating of INa in response to rapid membrane depolarization. Cells were bathed in Ca^2+-free Tyrode’s solution containing 10 mM tetraethylammonium chloride (TEA) and the recording pipette was backfilled with a Cs^+-containing solution. […] For example, when rapid membrane depolarization from −80 to −10 mV with a duration of 40 msec was delivered (indicated in the inset of Figure 1A) to evoke INa, the addition of 3 μM SSM caused a decrease in the peak or sustained amplitude of INa to 139 ± 11 pA (n = 11, P < 0.05) or 12 ± 3 pA (n = 11, P < 0.05), respectively, from the control values of 248 ± 18 or 21 ± 2 pA (n = 11). After the removal of SSM, the peak and sustained amplitude returned to 232 ± 16 or 19 ± 2 pA (n = 7, P < 0.05).
# The bath solution (i.e., a HEPES-buffered normal Tyrode’s solution) utilized in the present study was composed of 136 mM NaCl, 5.4 mM KCl, 1.8 mM CaCl2, 0.53 mM MgCl2, 5.5 mM glucose, and 5.5 mM HEPES titrated with NaOH to pH 7.4. To measure macroscopic IK(DR) and Ih, we filled patch pipettes by using a solution containing 130 mM K-aspartate, 20 mM KCl, 1 mM KH2PO4, 1 mM MgCl2, 3 mM Na2ATP, 0.1 mM Na2GTP, 0.1 mM EGTA, and 5 mM HEPES adjusted with KOH to pH 7.2. To record INa and INa(R), we substituted K^+ ions in the pipette solution inside the electrode for equmolar Cs^+ ions and the pH value in the solution was adjusted to 7.2 with CsOH. To measure IK(erg) and IK(M), cells were bathed in a high-K^+ solution containing 145 mM KCl, 0.53 mM MgCl2, and 5 mM HEPES-KOH buffer, pH 7.4. All solutions were prepared using deionized water from a Millipore Milli-Q purification system (ρ = 18 MΩ·cm) (Merck, Ltd., Taipei, Taiwan). The pipette solution and culture medium were filtered on the day of use with a sterile Acrodisc® syringe filter with a 0.2-μm Supor® membrane (Bio-Check; New Taipei City, Taiwan).
# The pituitary adenomatous cell line, GH3, was acquired from the Bioresource Collection and Research Center ((BCRC-60015, https://catalog.bcrc.firdi.org.tw/BcrcContent?bid=60015); Hsinchu, Taiwan). Cells were maintained in Ham’s F-12 medium supplemented with 2.5% fetal bovine serum (v/v), 15% horse serum (v/v), and 2 mM L-glutamine in a humidified environment of 5% CO2/95% air. When well differentiated, GH3 cells were transferred to a serum- and Ca^2+-free medium. Electrical recordings were performed 5 or 6 days after cells were cultured with 60–80% confluence.
# On the day of each experiment, cells were dispersed with a 1% trypsin/EDTA solution and a few drops of cell suspension were rapidly placed in a custom-built recording chamber mounted on the stage of an inverted DM-IL microscope (Leica; Major Instruments, Kaohsiung, Taiwan). They were immersed at room temperature (20–25 °C) in normal Tyrode’s solution, the composition of which is elaborated above. We measured ion currents in the whole-cell model of a standard patch-clamp technique with dynamic adaptive suctioning (i.e., decremental change of suction pressure in response to a progressive increase in the electrode resistance), with the aid of an RK-400 (Bio-Logic, Claix, France) or an Axopatch-200B (Molecular Devices, Sunnyvale, CA) patch amplifier. The microelectrodes used were prepared from Kimax-51 borosilicate capillaries with a 1.5-mm outer diameter (#34500; Kimble; Dogger, New Taipei City, Taiwan) by using a PP-830 vertical puller (Narishige, Taiwan Instrument, Taipei, Taiwan). The recording electrodes had their tip resistances, which ranged between 3 and 5 MΩ, as they were filled up with the different internal solutions elaborated above. During the measurements, the recorded area on the vibration-free table was shielded by using a Faraday cage (Scitech, Seoul, South Korea). […]
# [2] = test system: hyperpolarization-activated cation currents (Ih) in GH3 cells; experiment: Whole-cell patch-clamp of hyperpolarization-activated cation current (−40 to −110 mV)
# Procedure: In the following experiments, we further studied whether the presence of SSM could perturb another type of inwardly directed current, i.e., Ih. Cells were exposed to Ca^2+-free Tyrode’s solution containing 1 μM TTX and the pipette was filled with K^+-containing solution. As the hyperpolarizing command pulse from −40 to −110 mV with a duration of 2 sec was delivered, Ih with a slowly activating property was robustly evoked, as observed previously. […] Cilobradine has recently been reported to decrease Ih amplitude, as well as to alter activation kinetics present in different types of excitable cells.
# (§1) The bath solution (i.e., a HEPES-buffered normal Tyrode’s solution) utilized in the present study was composed of 136 mM NaCl, 5.4 mM KCl, 1.8 mM CaCl2, 0.53 mM MgCl2, 5.5 mM glucose, and 5.5 mM HEPES titrated with NaOH to pH 7.4. To measure macroscopic IK(DR) and Ih, we filled patch pipettes by using a solution containing 130 mM K-aspartate, 20 mM KCl, 1 mM KH2PO4, 1 mM MgCl2, 3 mM Na2ATP, 0.1 mM Na2GTP, 0.1 mM EGTA, and 5 mM HEPES adjusted with KOH to pH 7.2. To record INa and INa(R), we substituted K^+ ions in the pipette solution inside the electrode for equmolar Cs^+ ions and the pH value in the solution was adjusted to 7.2 with CsOH. […]
# (§2) On the day of each experiment, cells were dispersed with a 1% trypsin/EDTA solution and a few drops of cell suspension were rapidly placed in a custom-built recording chamber mounted on the stage of an inverted DM-IL microscope (Leica; Major Instruments, Kaohsiung, Taiwan). […] We measured ion currents in the whole-cell model of a standard patch-clamp technique with dynamic adaptive suctioning (i.e., decremental change of suction pressure in response to a progressive increase in the electrode resistance), with the aid of an RK-400 (Bio-Logic, Claix, France) or an Axopatch-200B (Molecular Devices, Sunnyvale, CA) patch amplifier. […] During the measurements, the recorded area on the vibration-free table was shielded by using a Faraday cage (Scitech, Seoul, South Korea). […]
# [3] = test system: delayed rectifier K+ currents (IK(DR)) in GH3 cells; experiment: Whole-cell patch-clamp of delayed rectifier K+ current (1-sec step depolarization)
# Procedure: We next examined whether the presence of SSM is able to modify IK(DR) present in GH3 cells. To achieve this goal, we bathed cells in Ca^2+-free Tyrode’s solution which contained 1 μM TTX, and then filled up the recording electrode by using K^+-containing solution. When cells were exposed to SSM at a concentration of 3 μM, the amplitude of IK(DR) in response to a 1-sec step depolarization was unchanged. It is noted, however, that the IK(DR) amplitudes responding to different levels of depolarizing command steps were decreased by the addition of 10 μM SSM, though the activation time course of IK(DR) evoked by membrane depolarization remained unchanged.
# as §1, §2
# [4] = test system: resurgent INa (INa(R)) in GH3 cells; experiment: Whole-cell patch-clamp of resurgent INa (step to +20 mV, repolarization to −50 to 0 mV); settings: 1 μM; at −30 mV; control 46 ± 6 pA; n = 8
# Excerpt: We next wanted to determine whether SSM exerts any effects on INa(R) identified from these cells. The whole-cell experiments on INa(R) were undertaken when each cell was voltage clamped at −80 mV and a brief depolarizing step to +20 mV was delivered to activate transient INa. The INa(R) upon repolarization to various potentials ranging between −50 and 0 mV was thereafter measured at the end of voltage pulses (Figure 4). The effect of SSM on INa(R) was examined at various membrane potentials, and the I-V relationship of INa(R) with or without the addition of SSM was constructed. […]
# as §2
# [5] = test system: M-type K+ currents (IK(M)) in GH3 cells; experiment: Whole-cell patch-clamp of M-type K+ current (depolarization from −50 to −10 mV, 1 sec); settings: amplitude at end of pulse, read-out: IC50 for decrease of IK
# Excerpt: The following experiments were further undertaken to determine whether the addition of SSM could exert any perturbations on the amplitude or gating of IK(M) in these cells. Cells were bathed in high-K^+, Ca^2+-free solution, and the recording pipette was then filled with K^+-enriched solution. Figure 5 illustrates that the presence of SSM can result in a concentration-dependent depression in the amplitude of IK(M) during step depolarization.
# The bath solution (i.e., a HEPES-buffered normal Tyrode’s solution) utilized in the present study was composed of 136 mM NaCl, 5.4 mM KCl, 1.8 mM CaCl2, 0.53 mM MgCl2, 5.5 mM glucose, and 5.5 mM HEPES titrated with NaOH to pH 7.4. […]
# On the day of each experiment, cells were dispersed with a 1% trypsin/EDTA solution and a few drops of cell suspension were rapidly placed in a custom-built recording chamber mounted on the stage of an inverted DM-IL microscope (Leica; Major Instruments, Kaohsiung, Taiwan). […] We measured ion currents in the whole-cell model of a standard patch-clamp technique with dynamic adaptive suctioning (i.e., decremental change of suction pressure in response to a progressive increase in the electrode resistance), with the aid of an RK-400 (Bio-Logic, Claix, France) or an Axopatch-200B (Molecular Devices, Sunnyvale, CA) patch amplifier. […]
# [6] = amplitude at beginning of pulse, read-out: IC50 for decrease of peak INa
# [7] = amplitude at end of pulse, read-out: IC50 for decrease of sustained INa
structure (smiles),measurement,setting,value
"Cc1c(F)c(F)c(COC(=O)[C@@H]2[C@H](/C=C(\Cl)C(F)(F)F)C2(C)C)c(F)c1F (racemic) [tefluthrin, reference compound]",Effect on SSM-induced inhibition of peak INa,[1],effective in reversing
"c1cc2c(cc1[C@H]1OC[C@H]3[C@@H]1CO[C@@H]3c1ccc3c(c1)OCO3)OCO2 [SSM, [1S-(1α,3aα,4α,6aα)] -5,5’- (tetrahydro-1H,3H-furo [3–4-c]furan-1,4-diyl)bis-1,3-benzodioxole]",Ih amplitude at end of hyperpolarizing step,"[2]; 10 μM, at −110 mV, control 388 ± 24 pA, n = 9",386 ± 26 pA
same,Effect on amplitude of IK(DR),"[3]; 3 μM, 1-sec step depolarization",unchanged
same,IK(DR) amplitude,"[3]; 10 μM, at +40 mV, control 598 ± 34 pA, n = 8",454 ± 29 pA
same,Decrease of IK(DR) amplitude,"[3]; 10 μM, at +40 mV, n = 8",23 ± 4%
same,Effect on peak amplitude of INa,[1]; 3 μM,produced inhibitory effects
same,Sustained amplitude of INa,"[1]; 3 μM, −80 to −10 mV, 40 msec, control 21 ± 2 pA, n = 11",12 ± 3 pA
same,Peak amplitude of INa,"[1]; 3 μM, −80 to −10 mV, 40 msec, control 248 ± 18 pA, n = 11",139 ± 11 pA
same,Effect on peak component of INa,[1]; 0.1 to 0.3 μM,little or no effect
same,Effect on sustained component of INa,[1]; 0.1 to 0.3 μM,effectively blocked
same,IC50,[1]; [6],7.2 µM
same,IC50,[1]; [7],0.6 µM
same,Kd,"[1]; first-order reaction scheme, open-state block, read-out: Dissociation constant (KD = k−1/k+1*) of INa block",0.93 µM
same,Unblocking (backward) rate constant k−1 of INa block,[1]; from intercept of 1/τinact(S) versus [SSM],0.0415 msec^−1
same,Blocking (forward) rate constant k+1* of INa block,[1]; from slope of 1/τinact(S) versus [SSM],0.0449 msec^−1μM^−1
same,Peak amplitude of INa after removal of compound,"[1]; washout after 3 μM, n = 7",232 ± 16 pA
same,Sustained amplitude of INa after removal of compound,"[1]; washout after 3 μM, n = 7",19 ± 2 pA
same,INa(R) amplitude,[4],22 ± 5 pA
same,IC50,[5],4.8 µM
"c1cc2c(cc1O[C@H]1OC[C@H]3[C@@H]1CO[C@@H]3c1ccc3c(c1)OCO3)OCO2 [SesA, 5-[(1S,3aR,4R,6aR)-4-(1,3-benzodioxol-5-yloxy)tetrahydro-1H,3H-furo[3,4-c]furan-1-yl]-1,3-benzodioxole]",Effect on Ih amplitude,[2]; 10 μM,minimal effect
same,Effect on peak amplitude of INa,[1]; 3 μM,produced inhibitory effects
same,IC50,[1]; [6],9.8 µM
same,IC50,[1]; [7],2.5 µM
"COc1ccc(CCN2CCC[C@H](CN3CCc4cc(OC)c(OC)cc4CC3=O)C2)cc1OC [cilobradine, reference compound]",Effect on Ih amplitude,[2]; 3 or 10 μM added in continued presence of SSM (10 μM),highly effective at inhibiting
"CCCc1nc2c(C)cc(-c3nc4ccccc4n3C)cc2n1Cc1ccc(-c2ccccc2C(=O)O)cc1 [telmisartan, reference compound]",Effect on SSM-induced inhibition of peak INa,[1],effective in reversing
